PubChem BioAssay AID330 (DTP/NCI, 2004)
Values joined by “and” are separate entries in the source; they are usually repeats but may differ in a detail not shown here. Equal values may be shown once. Toxic doses and inconclusive results are not listed.

Tested on: P388 leukemia ip, CD2F1 mice, survival T/C
Assay: NCI In Vivo Anticancer Drug Screen. Data for tumor model P388 Leukemia (intraperitoneal) in CD2F1 (CDF1) mice
Details: endpoint: median survival time, higher = longer survival
Procedure, shortened: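 Mice carrying the transplanted tumor received test compound or vehicle. Survival was recorded in each group, and the value is the treated-group measurement divided by that of the vehicle-treated control group.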

[1] = dose: 100.0 mg/kg/injection, schedule: Q01DX009 (ip), vehicle: saline with Tween-80
[2] = dose: 200.0 mg/kg/injection, schedule: Q01DX009 (ip), vehicle: saline with Tween-80
[3] = dose: 60.0 mg/kg/injection, schedule: Q01DX005 (ip), vehicle: saline with Tween-80
[4] = dose: 120.0 mg/kg/injection, schedule: Q01DX005 (ip), vehicle: saline with Tween-80
[5] = dose: 50.0 mg/kg/injection, schedule: Q01DX009 (ip), vehicle: Klucel (hydroxypropylcellulose) (HPC)
[6] = dose: 100.0 mg/kg/injection, schedule: Q01DX009 (ip), vehicle: Klucel (hydroxypropylcellulose) (HPC)
[7] = dose: 200.0 mg/kg/injection, schedule: Q01DX009 (ip), vehicle: Klucel (hydroxypropylcellulose) (HPC)
[8] = dose: 60.0 mg/kg/injection, schedule: Q01DX005 (ip), vehicle: saline
[9] = dose: 50.0 mg/kg/injection, schedule: Q01DX005 (ip), vehicle: saline with Tween-80
[10] = dose: 100.0 mg/kg/injection, schedule: Q01DX005 (ip), vehicle: saline with Tween-80
[11] = dose: 200.0 mg/kg/injection, schedule: Q01DX005 (ip), vehicle: saline with Tween-80
[12] = dose: 60.0 mg/kg/injection, schedule: Q01DX005 (ip), vehicle: Klucel (hydroxypropylcellulose) (HPC)
[13] = dose: 50.0 mg/kg/injection, schedule: Q01DX009 (ip), vehicle: saline with Tween-80
[14] = dose: 50.0 mg/kg/injection, schedule: Q01DX005 (ip), vehicle: saline
[15] = dose: 100.0 mg/kg/injection, schedule: Q01DX005 (ip), vehicle: saline
[16] = dose: 200.0 mg/kg/injection, schedule: Q01DX005 (ip), vehicle: saline

Cc1c(O)c2ccccc2c2c1sc(NCCCN(CCO)CCO)[n+]2C
T/C (dose: 7.5 mg/kg/injection, schedule: Q01DX005 (ip), vehicle: saline): 109 % of control
T/C (dose: 15.0 mg/kg/injection, schedule: Q01DX005 (ip), vehicle: saline): 107 % of control
T/C (dose: 30.0 mg/kg/injection, schedule: Q01DX005 (ip), vehicle: saline): 110 % of control

O=[n+]1cc2ccccn2cc1-c1ccccc1
T/C [1]: 90 % of control
T/C [2]: 95 % of control
T/C (dose: 400.0 mg/kg/injection, schedule: Q01DX009 (ip), vehicle: saline with Tween-80): 118 % of control

O=S(=O)(OC1=C/[C@H](S(=O)(=O)c2ccccc2)/C=C\[C@H](S(=O)(=O)c2ccccc2)/C=C\1)c1ccccc1
T/C [3]: 97 % of control
T/C [4]: 93 % of control
T/C (dose: 240.0 mg/kg/injection, schedule: Q01DX005 (ip), vehicle: saline with Tween-80): 91 % of control

CCOC(=O)c1ccc(NC(=O)c2cccc(Cl)c2)cc1
T/C [5]: 104 % of control
T/C [6]: 100 % of control
T/C [7]: 98 % of control

C=C(OC1C=C(C(=O)O)C2OC2C1O)C(=O)O (stereo not drawn)
T/C (dose: 2.5 mg/kg/injection, schedule: Q01DX005 (ip), vehicle: saline): 100 % of control
T/C (dose: 5.0 mg/kg/injection, schedule: Q01DX005 (ip), vehicle: saline): 100 % of control
T/C (dose: 10.0 mg/kg/injection, schedule: Q01DX005 (ip), vehicle: saline): 106 % of control
T/C (dose: 20.0 mg/kg/injection, schedule: Q01DX005 (ip), vehicle: saline): 102 % of control
T/C (dose: 40.0 mg/kg/injection, schedule: Q01DX005 (ip), vehicle: saline): 109 % of control

C[n+]1c(C2(C)CCCO2)sc2ccccc21 (stereo not drawn)
T/C [8]: 103 % of control

CC(C)CC(=N)CC(C)C
T/C [9]: 100 % of control
T/C [10]: 100 % of control
T/C [11]: 96 % of control

c1ccc2c(SCCCCCCCCCCCSc3c4ccccc4nc4ccccc34)c3ccccc3nc2c1
T/C [12]: 106 % of control
T/C (dose: 120.0 mg/kg/injection, schedule: Q01DX005 (ip), vehicle: Klucel (hydroxypropylcellulose) (HPC)): 101 % of control
T/C (dose: 240.0 mg/kg/injection, schedule: Q01DX005 (ip), vehicle: Klucel (hydroxypropylcellulose) (HPC)): 90 % of control

[N-]=[N+]=Nc1cc(Cl)nnc1-c1ccccc1
T/C (dose: 15.0 mg/kg/injection, schedule: Q01DX005 (ip), vehicle: Klucel (hydroxypropylcellulose) (HPC)): 107 % of control
T/C (dose: 30.0 mg/kg/injection, schedule: Q01DX005 (ip), vehicle: Klucel (hydroxypropylcellulose) (HPC)): 105 % of control
T/C [12]: 100 % of control

O=C(O)c1cc(-c2ccc(Cl)cc2)nc2cc(Cl)ccc12
T/C [9]: 98 % of control
T/C [10]: 100 % of control

CN(C)C1c2cc(Cl)ccc2-c2c(Cl)cc(Cl)cc21 (stereo not drawn)
T/C (dose: 50.0 mg/kg/injection, schedule: Q01DX005 (ip), vehicle: Klucel (hydroxypropylcellulose) (HPC)): 100 % of control and 91 % of control
T/C (dose: 100.0 mg/kg/injection, schedule: Q01DX005 (ip), vehicle: Klucel (hydroxypropylcellulose) (HPC)): 96 % of control
T/C (dose: 200.0 mg/kg/injection, schedule: Q01DX005 (ip), vehicle: Klucel (hydroxypropylcellulose) (HPC)): 91 % of control and 92 % of control

CC1(C)OC1CS(=O)c1ccccc1 (stereo not drawn)
T/C [13]: 101 % of control
T/C (dose: 66.0 mg/kg/injection, schedule: Q01DX009 (ip), vehicle: saline with Tween-80): 99 % of control
T/C [1]: 99 % of control and 121 % of control
T/C [2]: 114 % of control

CN(C)CCc1ccc2ccc3cccc4ccc1c2c34
T/C [13]: 107 % of control
T/C [1]: 102 % of control
T/C [2]: 108 % of control

CN(C(=S=O)c1ccc([N+](=O)[O-])cc1)c1ccccc1
T/C (dose: 50.0 mg/kg/injection, schedule: Q01DX009 (ip), vehicle: saline): 100 % of control
T/C (dose: 100.0 mg/kg/injection, schedule: Q01DX009 (ip), vehicle: saline): 97 % of control
T/C (dose: 200.0 mg/kg/injection, schedule: Q01DX009 (ip), vehicle: saline): 104 % of control

COc1cc2c(c(OC)c1OC)-c1ccc(SC)c(=O)cc1[C@@H](NC(=O)Oc1ccccc1)CC2
T/C (dose: 5.0 mg/kg/injection, schedule: Q01DX009 (ip), vehicle: Klucel (hydroxypropylcellulose) (HPC)): 164 % of control

COc1cc(O)c(C(C)=O)c2c1C=CC(C)(C)O2
T/C [9]: 102 % of control
T/C [10]: 105 % of control
T/C [11]: 100 % of control

CCCCCCCCCCCCCCCCC1=C(C(=O)OC)NC(N)=NC1O (stereo not drawn)
T/C (dose: 7.5 mg/kg/injection, schedule: Q01DX005 (ip), vehicle: saline with Tween-80): 103 % of control
T/C (dose: 15.0 mg/kg/injection, schedule: Q01DX005 (ip), vehicle: saline with Tween-80): 100 % of control
T/C (dose: 30.0 mg/kg/injection, schedule: Q01DX005 (ip), vehicle: saline with Tween-80): 102 % of control
T/C [3]: 103 % of control
T/C [4]: 103 % of control
T/C (dose: 600.0 mg/kg/injection, schedule: Q01DX005 (ip), vehicle: saline with Tween-80): 106 % of control

Oc1c(CNCc2ccc(Cl)c(Cl)c2)ccc2cccnc12
T/C (dose: 100.0 mg/kg/injection, schedule: Q04DX003 (ip), vehicle: Klucel (hydroxypropylcellulose) (HPC)): 104 % of control
T/C (dose: 200.0 mg/kg/injection, schedule: Q04DX003 (ip), vehicle: Klucel (hydroxypropylcellulose) (HPC)): 105 % of control
T/C (dose: 400.0 mg/kg/injection, schedule: Q04DX003 (ip), vehicle: Klucel (hydroxypropylcellulose) (HPC)): 106 % of control

CCOC(=O)CCCCCCCCNC(=S)N1c2c(nc(N)[nH]c2=O)NCC1CNc1ccc(C(=O)NC(CCC(=O)O)C(=O)O)cc1 (stereo not drawn)
T/C [5]: 90 % of control
T/C [6]: 110 % of control
T/C [7]: 99 % of control

COC1OC(CO)C2OC12 (stereo not drawn)
T/C [14]: 93 % of control and 103 % of control
T/C [15]: 94 % of control and 100 % of control
T/C [16]: 88 % of control and 99 % of control

N#C/C(=C\c1cccs1)C(=O)c1ccco1
T/C [13]: 101 % of control
T/C [1]: 100 % of control
T/C [2]: 95 % of control

COC(=O)CC(CCCCCCCCCCCCC(C)C)OC(C)=O (stereo not drawn)
T/C (dose: 8.13 mg/kg/injection, schedule: Q01DX005 (ip), vehicle: Klucel (hydroxypropylcellulose) (HPC)): 94 % of control
T/C (dose: 16.25 mg/kg/injection, schedule: Q01DX005 (ip), vehicle: Klucel (hydroxypropylcellulose) (HPC)): 96 % of control
T/C (dose: 32.5 mg/kg/injection, schedule: Q01DX005 (ip), vehicle: Klucel (hydroxypropylcellulose) (HPC)): 99 % of control
T/C (dose: 65.0 mg/kg/injection, schedule: Q01DX005 (ip), vehicle: Klucel (hydroxypropylcellulose) (HPC)): 112 % of control

COC(C)C(NC=O)C(=O)O (stereo not drawn)
T/C [14]: 100 % of control and 99 % of control
T/C [15]: 96 % of control and 98 % of control
T/C [16]: 100 % of control and 91 % of control

COc1cccc2c1C(=O)c1c(O)c3c(c(O)c1C2=O)CC(O)(C(C)=O)CC3OC1CC([N+](C)(C)C)C(O)C(C)O1 (stereo not drawn)
T/C (dose: 1.56 mg/kg/injection, schedule: Q01DX009 (ip), vehicle: water): 101 % of control
T/C (dose: 3.12 mg/kg/injection, schedule: Q01DX009 (ip), vehicle: water): 90 % of control
T/C (dose: 3.13 mg/kg/injection, schedule: Q01DX009 (ip), vehicle: water): 113 % of control
T/C (dose: 6.25 mg/kg/injection, schedule: Q01DX009 (ip), vehicle: water): 118 % of control
T/C (dose: 12.5 mg/kg/injection, schedule: Q01DX009 (ip), vehicle: water): 110 % of control and 112 % of control
T/C (dose: 25.0 mg/kg/injection, schedule: Q01DX009 (ip), vehicle: water): 111 % of control and 120 % of control

CC1(C)C[C@H]2C=C(C=O)[C@]34C[C@]3(C(=O)OC4O)[C@H]2C1 (stereo partly drawn)
T/C (dose: 0.18 mg/kg/injection, schedule: Q01DX009 (ip), vehicle: Klucel (hydroxypropylcellulose) (HPC)): 103 % of control
T/C (dose: 0.78 mg/kg/injection, schedule: Q01DX009 (ip), vehicle: Klucel (hydroxypropylcellulose) (HPC)): 111 % of control and 120 % of control
T/C (dose: 1.56 mg/kg/injection, schedule: Q01DX009 (ip), vehicle: Klucel (hydroxypropylcellulose) (HPC)): 106 % of control and 117 % of control

C[Si](C)(C)/N=C(/O[Si](C)(C)C)C(F)(F)F
T/C [8]: 101 % of control
T/C (dose: 120.0 mg/kg/injection, schedule: Q01DX005 (ip), vehicle: saline): 111 % of control
T/C (dose: 240.0 mg/kg/injection, schedule: Q01DX005 (ip), vehicle: saline): 108 % of control
